From patent US6495356B1, “Beryllofluoride analogues of acyl phosphate polypeptides” (priority 1999, dated 2002)

Columns and labels:
NtrC^WT [1] = target: T1, NtrC^WT (Salmonella typhimurium, UniProt P41789, C30V/C364A); assay: Formation of open complexes, single-cycle transcription assay; assay type: biochemical; details: ≦100 μM BeFx vs 10 mM carbamoyl phosphate
T1 construct: made in house
Procedure: Formation of open complexes was assessed in a single-cycle transcription assay on a supercoiled plasmid template pJES534 (1 nM) (Porter et al. (1993) Genes Dev. 7, 2258-2273; Flashner et al. (1995) J. Mol. Biol. 249, 700-713). NtrC was incubated with 100 μM BeCl2 plus 10 mM NaF or 10 mM carbamoyl phosphate, respectively, at 37° C. for 10 min prior to initiation of the reaction with ATP.
(§1) Transcriptional activation of NtrC was assessed as described in Flashner et al. (1995) J. Mol. Biol. 249, 700-713. DNA-binding of OmpR was assessed as described in Huang and Igo (1996) J. Mol. Biol. 262, 615-628. DNA-binding of NarL was assessed as described in Li et al. (1994) J. Mol. Biol. 241, 150-165 and Darwin et al. (1997) Mol. Microbiol 25, 583-595.

NtrC^WT [2] = target: T1, NtrC^WT; assay type: biochemical; details: for Stimulation of the ATPase activity of NtrC^WT: BeCl2 200 μM, AlCl3 200 μM, NaF 5 mM, VO4^3− 1 mM, compared with carbamoyl phosphate 10 mM
Procedure: NtrC proteins. […] All full-length NtrC proteins (dimer concentration) were maltose binding protein fusions to NtrC lacking its two natural cysteines (MBP-NtrC^C30V,C364A) or its derivatives.
Assays. […] Mol. Biol. 249, 700-713). Prior to addition of ATP, other components were incubated for 30 min at 25° C. together with the indicated small molecule or combination of small molecules (carbamoyl phosphate, 10 mM; BeCl2, 200 μM; AlCl3, 200 μM; NaF, 5 mM; VO4^3−, 1 mM). The response of the ATPase activity of NtrC to the concentration of NaF or BeCl2 was assessed essentially as above, except the reaction time was 10 min.

NtrC^D86C,Fe = target: T2, NtrC^D86C,Fe (Salmonella typhimurium, UniProt P41789, C30V/C364A/D86C); assay: Fe-mediated cleavage of NtrC^D86C,Fe; assay type: biochemical; details: BeCl2 200 μM, NaF 10 mM; divalent cation required
T2 construct: made in house
Procedure: Fe-mediated cleavage of NtrC was assessed as follows: NtrC (5 to 10 μM) was incubated for 30 min at 25° C. with the indicated small molecule or combination of small molecules (carbamoyl phosphate, 10 mM; BeCl2, 200 μM; NaF, 10 mM) in cleavage buffer (10 mM MOPS, pH 8.0, 50 mM KCl, 8 mM MgCl2, 5% glycerol, 1 mM EDTA). Then cleavage was initiated by adding H2O2 and sodium ascorbate to final concentrations of 50 mM and samples were subjected to analysis by SDS-PAGE as described (Greiner etal. (1997) Bioconjugate Chem. 8, 44-48).
We have two direct lines of evidence that BeFx mimics effects of phosphorylation of NtrC structurally as well as functionally. […] Rearrangement at the dimer interface of P-NtrC is postulated to drive the formation of active oligomers. […] By contrast, the BeFx-dependent cleavage did require a divalent cation, and either Mg^2+ or Mn^2+ could serve (FIG. 3B). Thus, like phosphorylation (Parkinson and Kofoid (1992) Annu. Rev. Genet. 26, 71-112; Stock et al. (1995) in Two-component signal transduction, eds. Hoch and Silhavy (ASM, Washington, D.C.), pp. 25-51; Lukat et al. (1992) Proc. Natl. Acad. Sci. USA 89, 718-722; Feng et al. (1992) J. Bacteriol. 174, 6061-6070), the interaction between BeFx and D54 of NtrC requires a divalent cation. […]

NtrC^D86N,S160F = target: T3, NtrC^D86N,S160F (Salmonella typhimurium, UniProt P41789, C30V/C364A/D86N/S160F); assay type: biochemical; details: for Effect of single component on ATPase activity of NtrC^D86N,S160F: trace amounts of BeCl2 alone, high concentrations of NaF in absence of BeCl2
T3 construct: made in house

[3] = target: T4, phosphoserine phosphatase (PSP) (Methanocaldococcus jannaschii, UniProt Q58989); assay: Inhibition of hydrolytic activity of PSP; assay type: biochemical, Methanococcus jannaschii; details: for Inhibition of hydrolytic activity of PSP: analog generated in situ (NaF plus BeCl2 or AlCl3); for Effect of single component on PSP activity: NaF alone or BeCl2 alone
T4 construct: made in house

[4] = tested on: mutant forms of NtrC in which D54 has been replaced by A or N; assay: ATPase activity of NtrC D54 mutants; assay type: biochemical, Salmonella typhimurium; details: data not shown
[5] = tested on: control region for the fdnG operon; assay: DNase I footprinting of NarL DNA-binding; design: species or system E. coli
[6] = tested on: ompF promoter-regulatory region; assay: DNase I footprinting of OmpR binding; design: species or system E. coli; details: compared with P-OmpR (EnvZ or acetyl phosphate); NaF 10 mM, BeCl2 100 μM
Procedure: Binding of BeFx.OmpR to the ompF promoter-regulatory region was assessed by DNase I footprinting as described in Huang and Igo (1996) J. Mol. Biol. 262, 615-628 and was compared to that of P-OmpR. The concentrations of OmpR were: 6.4 μM (lanes 1, 6, 11 and 16); 1.6 μM (lanes 2, 7, 12 and 17); 0.4 μM (lanes 3, 8, 13 and 18); 0.1 μM (lanes, 4, 9, 14 and 19); and 0 μM (lanes 5, 10, 15 and 20). For samples in lanes 6-10, OmpR was phosphorylated by MBP-EnvZ (0.3 μM) as described (Huang and Igo (1996) J. Mol. Biol. 262, 615-628). For samples in lanes 11-20, NaF (10 mM) was present and for those in lanes 16-20, BeCl2 (100 μM) was also present. Non-specific DNA-binding observed in the presence of BeCl2 and NaF in lanes 16 and 17 was not observed when OmpR was phosphorylated by EnvZ (lanes 6 and 7) unless much higher concentrations of OmpR were used (see FIG. 4).
as §1

[7] = target: FliM peptide (residues 1-16); assay: FliM peptide binding of CheY (tryptophan fluorescence quenching); design: species or system E. coli; details: CheY 10 μM; ± 2 mM BeCl2, 20 mM NaF, 20 mM MgCl2; read-out: Dissociation constant for binding to the FliM peptide
Procedure: FliM peptide binding of CheY was assessed as described in McEvoy et al. (1999) J. Mol. Biol. 289, 1423-1433. Fluorescence intensity of CheY (10 μM) at 340 nm was measured as a function of added FliM peptide in the absence or presence of 2 mM BeCl2, 20 mM NaF and 20 mM MgCl2.
There is no direct in vitro assay for the activity of P-CheY in reversing the direction of flagellar rotation. […] The strength of this binding, which was assessed by quenching of the intrinsic tryptophan fluorescence of CheY, was recently reported to be phosphorylation-dependent (McEvoy et al. (1999) J. Mol. Biol. 289, 1423-1433). […] By this criterion, BeFx.CheY is as active as P-CheY. Like BeFx.CheY, a phosphonate derivative of CheY^D57C appears to be a biochemical analogue of P-CheY, but it is difficult to prepare (Halkides et al. (1998) Biochemistry 37, 13674-13680). Such analogues are extremely useful because the acyl phosphate linkage of P-CheY is exceptionally labile (half life of seconds) (Parkinson and Kofoid (1992) Annu. Rev. Genet. 26, 71-112; Stock et al. (1995) in Two-component signal transduction, eds. Hoch and Silhavy (ASM, Washington, D.C.), pp. 25-51).

## beryllofluoride [BeFx]
NtrC^WT [1]
  Activation of transcription by σ54-holoenzyme (open complexes): at least as great as that of the phosphorylated protein
NtrC^WT [2]
  Stimulation of the ATPase activity of NtrC^WT: as effective as carbamoyl phosphate
NtrC^D86C,Fe
  Phosphorylation-dependent Fe-mediated cleavage: yields an otherwise phosphorylation-dependent cleavage
NtrC^D86N,S160F
  Stimulation of the ATPase activity of unphosphorylated NtrC^D86N,S160F: substantially stimulated
[3]; 70° C. or room temperature, data not shown
  Inhibition of PSP activity at different temperatures: similarly inhibited
[3]
  Inhibition of hydrolytic activity of PSP: significantly inhibited
[4]
  Stimulation of ATPase activity of D54A / D54N NtrC: failure of BeFx to stimulate

## BeFx.NarL: beryllofluoride complex of E. coli response regulator NarL
[5]; 200 μM BeCl2, 10 mM NaF and 5 mM MgCl2
  Activity relative to P-NarL: less active
[5]; compared with P-NarL, data not shown
  Binding to the control region for the fdnG operon: bound similarly

## [F-].[Na+] [NaF]
NtrC^WT [2]; 50 μM BeCl2
  NaF concentration at which inhibition of ATPase activity occurred: ≥ 50 mM
  NaF concentration below which no ATPase activity was observed: 1 mM
NtrC^D86N,S160F
  Effect of single component on ATPase activity of NtrC^D86N,S160F: inhibited
[3]
  Effect of single component on PSP activity: Neither alone had such a profound effect

## [Be+2].[Cl-].[Cl-] [BeCl2]
NtrC^WT [2]; 5 mM NaF
  BeCl2 concentration at which inhibition of ATPase activity occurred: ≥ 200 µM
NtrC^WT [2]; 5 mM NaF, NtrC^WT 0.4 μM dimer
  BeCl2 concentration at which ATPase activity was detected (lowest tested): 5 µM
  BeCl2 concentration giving highest ATPase activity: 100 µM
NtrC^D86N,S160F
  Effect of single component on ATPase activity of NtrC^D86N,S160F: inhibited
[3]
  Effect of single component on PSP activity: Neither alone had such a profound effect

## [O]=[V]([O-])([O-])[O-] [VO4^3−, orthovanadate]
NtrC^WT [2]
  Stimulation of the ATPase activity of NtrC^WT: neither AlFx nor VO4^3− could substitute
[3]
  Inhibition of hydrolytic activity of PSP: observed to inhibit PSP activity

## aluminofluoride [AlFx]
NtrC^WT [2]
  Stimulation of the ATPase activity of NtrC^WT: neither AlFx nor VO4^3− could substitute
NtrC^D86N,S160F
  Stimulation of the ATPase activity of unphosphorylated NtrC^D86N,S160F: but not Alfx
[3]
  Inhibition of hydrolytic activity of PSP: can substitute for BeF3^− to inhibit PSP activity

## ADP.BeFx
NtrC^D86N,S160F; ADP complexes of phosphate analogs
  Inhibition of the ATPase activity of NtrC^D86N,S160F: neither ADP.BeFx nor ADP.AlFx nor ADP.VO4^3− appeared to inhibit

B1: BeFx.OmpR: beryllofluoride complex of E. coli response regulator OmpR (protein, UniProt P0AA16 1-239, looked up)
DNA-binding dual …: MQENYKILVVDDDMRLRALLERYLTEQGFQVRSVANAEQMDRLLTRESFHLMVLDLMLPGEDGLSICRRLRSQSNPMPIIMVTAKGEEVDRIVGLEIGADDYIPKPFNPRELLARIRAVLRRQANELPGAPSQEEAVIAFGKFKLNLGTREMFREDEPMPLTSGEFAVLKALVSHPREPLSRDKLMNLARGREYSAMERSIDVQISRLRRMVEEDPAHPRYIQTVWGLGYVFVPDGSKA
modifications: beryllofluoride complex
[6]
  Binding to regulatory region upstream of the ompF promoter: better than P-OmpR

B2: BeFx.CheY: beryllofluoride acyl phosphate analogue of E. coli response regulator CheY (protein, UniProt P0AE67 2-129, looked up)
Chemotaxis protein CheY: ADKELKFLVVDDFSTMRRIVRNLLKELGFNNVEEAEDGVDALNKLQAGGYGFVISDWNMPNMDGLELLKTIRADGAMSALPVLMVTAEAKKENIIAAAQAGASGYVVKPFTAATLEEKLNKIFEKLGM
modifications: beryllofluoride complex
[7]
  Kd: 26 µM

B3: CheY: E. coli CheY, central regulator of the chemotactic response, unmodified inactive form (protein, UniProt P0AE67 2-129, looked up)
Chemotaxis protein CheY: B2 Chemotaxis protein CheY
[7]
  Kd: 500 µM
